Source: patent US20190197375A1, “TRACEABLE METALLIC PRODUCTS AND METALLIC SUPPORT FOR NANOSTORAGE” (9163-0384 QUEBÉC INC., priority 2013, published 2019)

Assays:
S. aureus [1] = experiment: Antibacterial activity of anodized disk impregnated with benzalkonium chloride, deposited 5 min on agar plate lawn; type: cell-based; details: anodized disk soaked 10 min, FIG. 4
Method: Anodized and non-anodized aluminum disks were compared for incorporation/storage and recovery/diffusion of a chemical antibacterial compound. Briefly, anodized and non-anodized disks were prepared as described hereinbefore. The disks were then impregnated or not with benzalkonium chloride (an antibacterial) by soaking 10 min at room temperature and rinsed several times with water.
The disks were then tested for diffusion of the antimicrobial benzalkonium by measuring their respective antibacterial activity when deposited for 5 min on an agar plate lawn of S. aureus. […] This confirms incorporation and subsequent release of the antibacterial chemical from the anodized porous surface layer.

S. aureus [2] = experiment: Long term conservation: antibacterial activity of impregnated anodized aluminum disks after storage; type: cell-based; details: disks impregnated 4 years ago, 2.12% w/v; deposition 5 min on agar plate lawn
Method: An experiment was designed to evaluate the presence and integrity of samples stored in the anodized metallic support.
The antimicrobial activity was measured by diffusion of the antimicrobial benzalkonium following deposition for 5 min on an agar plate lawn of S. aureus (results not shown).

benzalkonium chloride
Inhibition of bacterial growth by impregnated anodized disk (S. aureus [1]): successfully inhibited bacterial growth | Antibacterial activity after storage in anodized aluminum disks (S. aureus [2]): still possible to measure antibacterial activity
